The results in this text go back to ChEMBL document CHEMBL1142675, “CH...O and CH...N hydrogen bonds in ligand design: a novel quinazolin-4-ylthiazol-2-ylamine protein kinase inhibitor” (J Med Chem, 2005).

By Ki is commonly meant the dissociation constant of the complex between target and ligand, obtained from inhibition or displacement. A low value points to tighter binding.

For this assay, the target named is Glycogen synthase kinase-3 (Homo sapiens, UniProt P49840+P49841). The assay can be described thus: Inhibition of Glycogen synthase kinase-3. In kind it is protein assay.

As for `Cc1cc(Nc2nc(-c3ccccc3)nc3ccccc23)no1`, the inhibition constant Ki is over 2000 nM. Consider `Cc1cc(Nc2cc(-c3ccccc3)nc3ccccc23)[nH]n1`, for which the Ki turned out to be 2500 nM.

`Cc1n[nH]c(Nc2nc(-c3ccccc3)nc3ccccc23)n1` showed a Ki of 23000 nM. The figure for `Cc1cnc(Nc2nc(-c3ccccc3)nc3ccccc23)s1` is 150 nM.

In turn, `c1ccc(-c2nc(Nc3cc[nH]n3)c3ccccc3n2)cc1` returned a Ki of 110 nM. Take `Cc1cc(Nc2nc(-c3ccccc3)nc3ccccc23)n[nH]1`: the Ki was 24 nM. Consider `c1ccc(-c2nc(Nc3nc[nH]n3)c3ccccc3n2)cc1`, for which the inhibition constant Ki came to 250 nM.
